Measured values as given in patent US10501450B2, “Anhydrate-free polymorphically pure micronized crystalline brexpiprazole di-hydrate for use in intramuscular injectable sustained release formulations” (HEXAL AG, priority 2016, dated 2019).
Like-named read-outs stand apart in the source and are kept apart here. Blank lines part the entries; values can stand above or below the compound they belong to.

Columns and labels:
[1] = Particle size distribution by laser diffraction (Malvern Mastersizer 3000, circulating aqueous suspension); assay type: physicochemical; conditions: volume distribution
Description: For the purpose of this invention, particle size distribution is determined as the percent volume at each particle size and measured by a laser diffraction method in the context of a circulating aqueous suspension. A Malvern Mastersizer 3000 laser diffraction analyzer equipped with a Hydro EV measurement cell was used. About 50 mg of sample were filled into a 15 ml glass test tube. The sample was wetted with two drops of Tween 80 and vortexed. Then the thoroughly wetted sample was dispersed in about 7 mL of UHQ-water by vortexing until the particles were dispersed. The suspension was treated for 7 minutes in an ultrasonification bath at RT (Elma S50H). The well dispersed suspension was then measured in water by adding a sample from the center of the test tube containing the well dispersed suspension to a water-filled dispersion unit prefilled with 70 mL of water. The sample in the 70 mL dispersion unit was kept under stirring at 2000 rpm. More sample from the test tube was added, until a targeted obscuration range of 10-25 percent was achieved. The Malvern Mastersizer was operated using the following parameters:
Measurement occurred after an optical alignment of the laser was done and after a background measurement was run. A measurement sequence consisted of eight individual measurements for which the mean value was represented as a histogram.
d90 as used herein means that 90% of the particles (based on volume) are smaller than or equal to the indicated size.
d50 as used herein means that 50% of the particles (based on volume) are smaller than or equal to the indicated size.
d10 as used herein means that 10% of the particles (based on volume) are smaller than or equal to the indicated size.
Particle size distribution was measured with a Malvern Mastersizer 3000 laser diffraction analyzer equipped with a Hydro EV measurement cell. About 50 mg of sample were given into a test tube. The sample was wetted with two drops of Tween 80 and dispersed in about 7 ml of water on a Vortexer. The suspension was treated for 7 minutes in a ultrasonification bath (Elma S50H). The well dispersed suspension was afterwards measured in water at a targeted obscuration range of 10-25 percent while circulating the aqueous suspension and stirring the suspension reservoir at 2000 rpm after a waiting period of three minutes. A fraunhofer optical model was utilized to deconvolute the sample scattering patterns to yield the resultant particle size distributions. Analysis model: General purpose/normal sensitivity. Measuring/background time: about 10 sec

[2] = Polymorphic stability of brexpiprazole dihydrate during wet ball milling, checked by PXRD; assay type: physicochemical; conditions: ball mill 25 Hz, 0.2 mL water, 10° C.
Description: The powder X-ray diffractogram was obtained with a PANalytical X'Pert PRO diffractometer equipped with a theta/theta coupled goniometer in transmission geometry, Cu-Kalpha1,2 radiation (wavelength 0.15419 nm) with a focusing mirror and a solid state PIXcel detector. The diffractogram was recorded at a tube voltage of 45 kV and a tube current of 40 mA, applying a stepsize of 0.013° 2-Theta with 40 s per step (255 channels) in the angular range of 2° to 40° 2-Theta at ambient conditions. A typical precision of the 2-Theta values is in the range of ±0.2° 2-Theta. […]
500 mg brexpiprazole dihydrate from comparative example 1 were milled in the presence of 0.2 mL water at 10° C. with a Retsch MM301 ball mill at 25 Hz for 5 min (1.5 ml jacket and 1 steel ball of 5 mm diameter). The obtained micronized crystalline material was analysed by PXRD and PSD. […] (Determined by the laser diffraction method in the context of a circulating aqueous suspension as the percent volume at each particle size and measured by a Malvern Mastersizer 3000 laser diffraction analyzer.)
500 mg brexpiprazole dihydrate from comparative example 1 were milled in the presence of 0.2 mL water at 10° C. with a Retsch MM301 ball mill at 25 Hz for 15 min (1.5 ml jacket and 1 steel ball of 5 mm diameter). The obtained micronized crystalline material was analysed by PXRD and PSD. […]

[3] = Solubility in water at 25° C.; assay type: physicochemical
Text: The brexpiprazole dihydrate can then be added to an aqueous medium in which it is hardly soluble to form a suspension.

[4] = rats, intramuscular injection, 56 days after the injection, cited from earlier work

particle size distribution d10 [1]: 1.35 μm
particle size distribution d50 [1]: 8.24 μm
particle size distribution d90 [1]: 21 μm
SMILES: O=c1ccc2ccc(OCCCCN3CCN(c4cccc5sccc45)CC3)cc2[nH]1 [Example 1]
transformation of dihydrate to anhydrate form I during micronization (PXRD peaks at 6.8° and 17.4°) ([2]; 5 min): had not transformed to brexpiprazole anhydrate form I

particle size distribution d10 [1]: 1.15 μm
particle size distribution d50 [1]: 7.04 μm
particle size distribution d90 [1]: 19 μm
SMILES: O=c1ccc2ccc(OCCCCN3CCN(c4cccc5sccc45)CC3)cc2[nH]1 [Example 2]
transformation of dihydrate to anhydrate form I during micronization (PXRD peaks at 6.8°, 10.0° and 17.4°) ([2]; 15 min): had not transformed to brexpiprazole anhydrate form I

solubility at 25° C. in water [3]: 18 µg/mL
SMILES: O=c1ccc2ccc(OCCCCN3CCN(c4cccc5sccc45)CC3)cc2[nH]1 [brexpiprazole anhydrate]
crystals detectable at the injection site [4]: no longer detectable

SMILES: O=c1ccc2ccc(OCCCCN3CCN(c4cccc5sccc45)CC3)cc2[nH]1 [brexpiprazole dihydrate, 7-[4-[4-(1-Benzothiophen-4-yl)piperazin-1-yl]butoxy]quinolin-2(1H)-one dihydrate]
solubility ([3]; 25 °C): 10 µg/mL
particle size distribution d90 ([1]; listed as Reference Example 1, dihydrate): above 25 μm
crystals detectable at the injection site ([4]; dihydrate): can still be detected
